According to patent US20130004424A1, “METHODS FOR DETERMINING AGENTS TARGETING MENA ISOFORMS AND USES THEREOF FOR DIAGNOSIS AND TREATMENT OF METASTATIC TUMORS” (priority 2010, published 2013):

Legend:
Mena^INV cells [1] = conditions: both in vitro and in vivo; cited from earlier work
Mena^INV cells [2] = experiment: in vivo invasion assay, collection needle containing EGF and erlotinib; conditions: Mena^INV cells vs MTLn3-EGFP control cells; collection needle contained both EGF and erlotinib
Source text: (B) Graphic of in vivo assay with needle collection. Primary tumor may be xenograft.
Collection needle contained both EGF and erlotinib. MTLn3-EGFP cells are control. **p<0.01, ***p<0.001.
Since cells expressing Mena^+ or Mena^INV/+ will move up an EGF gradient, when the cells expressing Mena^+ or Mena^INV/+ are in vivo, the cells expressing Mena^+ or Mena^INV/+ will move up the imposed EGF gradient and can be needle collected. If the putative agent does in fact inhibit Mena^+ or Mena^INV/+, the sensitivity of cells expressing Mena^+ or Mena^INV/+ drops and fewer cells will move up the EGF gradient.

Question: What does the source list for `C#Cc1cccc(Nc2ncnc3cc(OCCOC)c(OCCOC)cc23)c1` [erlotinib]?
Answer: resistance of cells to EGFR inhibitor (Mena^INV cells [1]): exhibit resistance; sensitivity of in vivo invasion to inhibition by erlotinib (Mena^INV cells [2]): less sensitive to inhibition
